In US20230141603A1, “BENZODIAZEPINE DERIVATIVES AS GABA A GAMMA1 PAM” (Hoffmann-La Roche Inc., priority 2021, published 2023) one finds Ki data, which are given here for 20 compounds.

This assay has as its target T1, h-GABAA α5β2γ1 (Homo sapiens, UniProt P31644+Q8N1C3).
T1 construct: expressed in transfected cells; host or cells: HEK293F cells (ThermoFisher R79007), membranes
T1 sequence (P31644 32-462): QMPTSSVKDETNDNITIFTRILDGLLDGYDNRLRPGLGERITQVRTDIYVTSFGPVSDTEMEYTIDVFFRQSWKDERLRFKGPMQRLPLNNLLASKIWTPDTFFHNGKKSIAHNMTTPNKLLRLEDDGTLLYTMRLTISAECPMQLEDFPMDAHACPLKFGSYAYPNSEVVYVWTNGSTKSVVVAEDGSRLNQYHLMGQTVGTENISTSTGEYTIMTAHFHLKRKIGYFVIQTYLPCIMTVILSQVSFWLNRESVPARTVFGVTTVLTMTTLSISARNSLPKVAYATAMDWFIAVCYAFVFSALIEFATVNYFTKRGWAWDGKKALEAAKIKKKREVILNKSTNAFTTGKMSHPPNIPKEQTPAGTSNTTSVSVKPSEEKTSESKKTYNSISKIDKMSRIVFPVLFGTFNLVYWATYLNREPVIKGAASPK
T1 sequence (P47870 25-512 partner limits assumed): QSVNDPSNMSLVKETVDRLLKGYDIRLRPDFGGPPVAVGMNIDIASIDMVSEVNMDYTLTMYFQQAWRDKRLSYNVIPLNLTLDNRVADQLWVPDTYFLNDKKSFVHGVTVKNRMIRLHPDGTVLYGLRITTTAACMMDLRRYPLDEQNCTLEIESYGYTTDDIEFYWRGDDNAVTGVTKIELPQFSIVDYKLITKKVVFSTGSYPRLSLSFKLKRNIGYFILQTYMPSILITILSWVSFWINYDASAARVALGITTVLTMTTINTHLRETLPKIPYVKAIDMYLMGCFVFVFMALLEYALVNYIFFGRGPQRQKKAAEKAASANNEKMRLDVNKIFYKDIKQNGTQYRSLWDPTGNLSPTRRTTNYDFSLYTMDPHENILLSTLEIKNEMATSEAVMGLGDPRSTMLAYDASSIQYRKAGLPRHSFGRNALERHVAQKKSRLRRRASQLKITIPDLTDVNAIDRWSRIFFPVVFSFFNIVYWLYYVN
T1 sequence (Q8N1C3 36-465): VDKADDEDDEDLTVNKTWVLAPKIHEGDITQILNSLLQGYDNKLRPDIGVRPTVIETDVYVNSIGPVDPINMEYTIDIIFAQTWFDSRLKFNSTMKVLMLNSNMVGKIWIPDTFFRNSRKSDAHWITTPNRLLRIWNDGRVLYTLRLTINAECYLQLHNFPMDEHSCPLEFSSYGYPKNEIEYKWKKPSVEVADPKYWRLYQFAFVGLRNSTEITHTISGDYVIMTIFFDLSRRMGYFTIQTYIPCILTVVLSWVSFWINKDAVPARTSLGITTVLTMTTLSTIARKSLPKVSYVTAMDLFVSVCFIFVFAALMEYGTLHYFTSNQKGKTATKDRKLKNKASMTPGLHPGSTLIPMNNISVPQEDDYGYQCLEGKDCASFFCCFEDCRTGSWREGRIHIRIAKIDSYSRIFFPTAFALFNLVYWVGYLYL
Put plainly: Radioligand binding assay, [3H]RO7239181 competition, HEK293F membranes. The protocol:
The affinity of compounds at GABAA γ1 subunit-containing receptors was measured by competition for [^3H]RO7239181 (67.3 Ci/mmol; Roche) binding to membranes from HEK293F cells (ThermoFisher R79007) expressing human (transiently transfected) receptors of composition […], α2β2γ1, α1β2γ1. For better protein expression of the α2 subunit-containing receptors, the 28 amino acid long signal peptide (Met1 to Ala28) of the human GABAA α2 subunit was substituted by the 31 amino acid long signal peptide (Met1 to Ser31) of human GABAA α5 subunit.
Harvested pellets from HEK293F cells expressing the different GABAA receptor subtypes were resuspended in Mannitol Buffer pH 7.2-7.4 (Mannitol 0.29M, Triethylamine 10 mM, Acetic acid 10 mM, EDTA 1 mM plus protease inhibitors (20 tablets Complete, Roche Diagnostics Cat. No. 05 056 489 001 per liter)), washed two times and then resuspended at 1:10 to 1:15 dilution in the same buffer. Cell disruption was performed by stirring the suspension in a Parr vessel #4637 at 435 psi for 15 minutes, and then the suspensions were centrifuged at 1000×g for 15 minutes at 4° C. (Beckman Avanti J-HC; rotor JS-4.2). The supernatant (S1) was transferred in a 21 Schott flask and the pellet (P1) was resuspended with Mannitol Buffer up to 175 ml. The resuspended pellet was transferred into a 250 ml Corning centrifugal beaker and centrifuged at 1500×g for 10 minutes at 4° C. (Beckman Avanti J-HC; rotor JS-4.2). The supernatant (S1) was then transferred in the 21 Schott flask and the pellet was discarded. The supernatants (S1) were centrifuged in 500 ml Beckman polypropylene centrifugal beaker at 15′000×g for 30 minutes at 4° C. (Beckman Avanti J-20 XP; rotor JLA-10.500). The pellet (P2) was resuspended with Mannitol Buffer 1:1 and frozen at −80° C. The supernatant (S2) was centrifuged in 100 ml Beckman polypropylene centrifugal tubes at 48000×g for 50 minutes at 4° C. (Beckman Avanti J-20 XP; rotor JA-18). The supernatant (S3) was discarded and the pellet (P3) was resuspended with 1:1 Mannitol Buffer. The P2 and P3 protein concentration was determined with the BIORAD Standard assay method with bovine serum albumin as standard and measured on the NANO-Drop 1000. The membrane suspension was aliquots (500 μl per tube) and stored at −80° C. until required. Membrane homogenates were resuspended and polytronised (Polytron PT1200E Kinematica AG) in Potassium Phosphate 10 mM, KCl 100 mM binding buffer at pH 7.4 to a final assay concentration determined with a previous experiment.
Radioligand binding assays were carried out in a volume of 200 μL (96-well plates) which contained 100 μL of cell membranes, [^3H]RO7239181 at a concentration of 1.5 nM (α5β2γ1) or 20-30 nM (α1β2γ1, α2β2γ1) and the test compound in the range of [0.3-10000]×10^−9 M. Nonspecific binding was defined by 10×10^−6 (α5β2γ1) and 30×10^−6 M RO7235136 and typically represented less than 5% (α5β2γ1) and less than 20% (α1β2γ1, α2β2γ1) of the total binding. Assays were incubated to equilibrium for 1 hour at 4° C. and then, membranes were filtered onto unifilter (96-well white microplate with bonded GF/C filters preincubated 20-50 minutes in 0.3% Polyethylenimine) with a Filtermate 196 harvester (Packard BioScience) and washed 4 times with cold Potassium Phosphate 10 mM pH 7.4, KCl 100 mM binding buffer. After drying, filter-retained radioactivity was detected by liquid scintillation counting. Ki values were calculated using Excel-Fit (Microsoft) and are the means of two determinations.
Turning to `COc1ccc2c(c1Cl)C(c1c(F)cccc1F)=NCc1nnc(-c3ccncn3)n1-2` [Example 61, 7-chloro-6-(2,6-difluorophenyl)-8-methoxy-1-pyrimidin-4-yl-4H-[1,2,4]triazolo[4,3-a][1,4]benzodiazepine], the Ki amounted to 4.2 nM. In other words, the single-digit nanomolar range.
On to `COCCc1nnc2n1-c1ccc(Cl)c(Cl)c1C(c1c(F)cccc1F)=NC2` [Example 19, 7,8-dichloro-6-(2,6-difluorophenyl)-1-(2-methoxyethyl)-4H-[1,2,4]triazolo[4,3-a][1,4]benzodiazepine], for which the Ki was determined as 2.5 nM.
The figure for `Cc1nnc2n1-c1ccc(C(F)(F)F)c(Cl)c1C(c1c(F)cccc1F)=NC2` [Example 40, 7-chloro-6-(2,6-difluorophenyl)-1-methyl-8-(trifluoromethyl)-4H-[1,2,4]triazolo[4,3-a][1,4]benzodiazepine] is 1.9 nM; for `Cc1nnc2n1-c1ccc(Cl)c(Cl)c1C(c1ccccc1F)=NC2` [Example 4, 7,8-dichloro-6-(2-fluorophenyl)-1-methyl-4H-[1,2,4]triazolo[4,3-a][1,4]benzodiazepine] it is 5.4 nM.
The figure for `Fc1ccccc1C1=NCc2nnc(C3CC3)n2-c2ccc(Br)c(Cl)c21` [Example 2, 8-bromo-7-chloro-1-cyclopropyl-6-(2-fluorophenyl)-4H-[1,2,4]triazolo[4,3-a][1,4]benzodiazepine] is 5.7 nM; for `Fc1cccnc1C1=NCc2nnc(-c3cccnn3)n2-c2ccc(C(F)(F)F)c(Cl)c21` [Example 72, 7-chloro-6-(3-fluoro-2-pyridyl)-1-pyridazin-3-yl-8-(trifluoromethyl)-4H-[1,2,4]triazolo[4,3-a][1,4]benzodiazepine] it is 5.4 nM.
The result for `Fc1cccc(F)c1C1=NCc2nncn2-c2ccc(Br)c(Cl)c21` [Example 7, 8-bromo-7-chloro-6-(2,6-difluorophenyl)-4H-[1,2,4]triazolo[4,3-a][1,4]benzodiazepine] reads 0.4 nM.
`Clc1cccnc1C1=NCc2nnc(-c3cccnn3)n2-c2ccc(Br)c(Cl)c21` [Example 47, 8-bromo-7-chloro-6-(3-chloro-2-pyridyl)-1-pyridazin-3-yl-4H-[1,2,4]triazolo[4,3-a][1,4]benzodiazepine] returned a Ki of 1.3 nM. This Ki is about 3.2-fold higher than that of the compound before.
In the case of `Cc1ccc2c(c1Cl)C(c1c(F)cccc1F)=NCc1nncn1-2` [Example 17, 7-chloro-6-(2,6-difluorophenyl)-8-methyl-4H-[1,2,4]triazolo[4,3-a][1,4]benzodiazepine], the Ki turned out to be 1.3 nM.
As to `Fc1cccnc1C1=NCc2nnc(C3CC3)n2-c2ccc(Cl)c(Cl)c21` [Example 65, 7,8-dichloro-1-cyclopropyl-6-(3-fluoro-2-pyridyl)-4H-[1,2,4]triazolo[4,3-a][1,4]benzodiazepine], the Ki was found to be 7.8 nM. Against the preceding compound, the Ki is about 6-fold higher.
The compound `COc1ccc2c(c1Cl)C(c1c(F)cccc1F)=NCc1nnc(-c3cccnc3)n1-2` [Example 62, 7-chloro-6-(2,6-difluorophenyl)-8-methoxy-1-(3-pyridyl)-4H-[1,2,4]triazolo[4,3-a][1,4]benzodiazepine] displayed a Ki of 4 nM.
Turning to `Fc1cccc(F)c1C1=NCc2nnc(-c3cccnn3)n2-c2ccc(C(F)(F)F)c(Cl)c21` [Example 38, 7-chloro-6-(2,6-difluorophenyl)-1-pyridazin-3-yl-8-(trifluoromethyl)-4H-[1,2,4]triazolo[4,3-a][1,4]benzodiazepine], the Ki stood at 1.9 nM.
The result for `Cc1nnc2n1-c1ccc(Cl)c(Cl)c1C(c1c(F)cccc1F)=NC2` [Example 5, 7,8-dichloro-6-(2,6-difluorophenyl)-1-methyl-4H-[1,2,4]triazolo[4,3-a][1,4]benzodiazepine] reads 0.8 nM; that for `CC(F)(F)c1ccc2c(c1Cl)C(c1c(F)cccc1F)=NCc1nncn1-2` [Example 21, 7-chloro-8-(1,1-difluoroethyl)-6-(2,6-difluorophenyl)-4H-[1,2,4]triazolo[4,3-a][1,4]benzodiazepine], 4.6 nM.
The figure for `Cc1nnc2n1-c1ccc(Br)c(Cl)c1C(c1c(F)cccc1Cl)=NC2` [Example 50, 8-bromo-7-chloro-6-(2-chloro-6-fluoro-phenyl)-1-methyl-4H-[1,2,4]triazolo[4,3-a][1,4]benzodiazepine] is 1 nM; for `Cn1cc(-c2nnc3n2-c2ccc(Cl)c(Cl)c2C(c2ncccc2F)=NC3)cn1` [Example 58, 7,8-dichloro-6-(3-fluoro-2-pyridyl)-1-(1-methylpyrazol-4-yl)-4H-[1,2,4]triazolo[4,3-a][1,4]benzodiazepine] it is 3.6 nM.
On to `O=c1[nH]nc2n1-c1ccc(Br)c(Cl)c1C(c1ccccc1F)=NC2` [Example 26, 8-bromo-7-chloro-6-(2-fluorophenyl)-2,4-dihydro-[1,2,4]triazolo[4,3-a][1,4]benzodiazepin-1-one], for which the Ki was 2.3 nM.
`Fc1cccnc1C1=NCc2nnc(-c3cccnn3)n2-c2ccc(Br)c(Cl)c21` [Example 45, 8-bromo-7-chloro-6-(3-fluoro-2-pyridyl)-1-pyridazin-3-yl-4H-[1,2,4]triazolo[4,3-a][1,4]benzodiazepine] had a Ki of 3 nM.
On to `Fc1cccnc1C1=NCc2nncn2-c2ccc(Br)c(Cl)c21` [Example 29, 8-bromo-7-chloro-6-(3-fluoro-2-pyridyl)-4H-[1,2,4]triazolo[4,3-a][1,4]benzodiazepine], for which the Ki turned out to be 7.2 nM. This Ki lies about 2.4-fold higher than the previous one.
For `Cc1ccc2c(c1Cl)C(c1c(F)cccc1F)=NCc1n[nH]c(=O)n1-2` [Example 16, 7-chloro-6-(2,6-difluorophenyl)-8-methyl-2,4-dihydro-[1,2,4]triazolo[4,3-a][1,4]benzodiazepin-1-one], the Ki is 1.8 nM.
